From patent US10442803B2, “Tricyclic heterocycles as bet protein inhibitors” (Incyte Corporation, priority 2013, dated 2019)
pIC50: −log10 of the molar value. Counter-ions that a name gives are not always drawn.

Legend:
BRD4-BD1 = BRD4-BD1 (Homo sapiens (Human), UniProt O60885); assay: BRD4 AlphaScreen assay (BRD4-BD1); format: binding; settings: H4Ac4 peptide, read-out: BRD4 BD-1 enzyme IC50
Description: (§1) BRD4-BD1 and BRD4-BD2 assays were conducted in white 384-well polystyrene plate in a final volume of 20 μL for BD1 and 40 μL for BD2. Inhibitors were first serially diluted in DMSO and added to the plate wells before the addition of other reaction components. The final concentration of DMSO in the assay was 1.25% (BD1) and 0.83% (BD2). The assays were carried out at room temperature for 75 min. in the assay buffer (50 mM HEPES, pH 7.4, 100 mM NaCl, 0.05% CHAPS, 0.01% BSA), containing 50 nM Biotin-labeled tetra-acetylated histone H4 peptide (H4Ac4), 3.8 nM (BRD4-BD1, BPS Bioscience #31040) or 20 nM (BRD4-BD2, BPS Bioscience #31041). The reaction followed by the addition of 20 μL of assay buffer supplemented with Streptavidin donor beads (PerkinElmer 6760002) and GSH Acceptor beads (PerkinElmer-AL109C) at 4 μg/mL under reduced light. After plate sealing, the plate was incubated in the dark at room temperature for 75 min. before reading on a PHERAstar FS plate reader (BMG Labtech). IC50 determination was performed by fitting the curve of percent control activity versus the log of the inhibitor concentration using the GraphPad Prism 5.0 software.

KMS.12.BM cells = assay: KMS.12.BM cell viability assay; format: cell-based; settings: 72 h; KMS.12.BM human myeloma cells, 3 days, Cell Titer-GLO ATP quantitation; read-out: KMS cellular IC50
Procedure, shortened: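 IC50 derived from luminescent ATP quantitation (Cell Titer-GLO) of viable cells after 3-day compound treatment. KMS.12.BM human myeloma line seeded at 5000 cells/well in RPMI with 10% FBS.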

BRD4-BD2 = BRD4-BD2 (Homo sapiens (Human), UniProt O60885); assay: BRD4 AlphaScreen assay (BRD4-BD2); format: binding; settings: H4Ac4 peptide, read-out: BRD4 BD-2 enzyme IC50
Description: as §1

Structure (SMILES) | pIC50 (BRD4-BD1) | pIC50 (KMS.12.BM cells) | pIC50 (BRD4-BD2)
Cc1nnc2ccc3c(cc(-c4ccn(C5(CC#N)CN(C(C)C)C5)n4)n3Cc3ccccc3)n12 [Example 111, {3-[3-(6-benzyl-1-methyl-6H-pyrrolo[2,3-e][1,2,4]triazolo[4,3-a]pyridin-7-yl)-1H-pyrazol-1-yl]-1-isopropylazetidin-3-yl}acetonitrile] | ≥ 7.00 | ≥ 6.00 | 
Cc1nc2c(cc(NC3CCN(C)CC3)c3nnc(C)n32)n1Cc1ccccc1 [Example 223, 3-Benzyl-2,8-dimethyl-N-(1-methylpiperidin-4-yl)-3H-imidazo[4,5-e][1,2,4]triazolo[4,3-a]pyridin-5-amine] | ≥ 7.00 | ≥ 6.00 | 
Cc1nnc2ccc3c(cc(-c4nnco4)n3Cc3cc(Cl)cc(CN4CC(O)C4)c3)n12 [Example 139, 1-(3-Chloro-5-{[1-methyl-7-(1,3,4-oxadiazol-2-yl)-6H-pyrrolo[2,3-e][1,2,4]triazolo[4,3-a]pyridin-6-yl]methyl}benzyl)azetidin-3-ol] | ≥ 7.00 | 5.00 to 6.00 | ≥ 7.00
Cc1nnc2ccc3c(cc(-c4ccn(C5(CC#N)CNC5)n4)n3Cc3cccc(Cl)c3)n12 [Example 157, (3-{3-[6-(3-Chlorobenzyl)-1-methyl-6H-pyrrolo[2,3-e][1,2,4]triazolo[4,3-a]pyridin-7-yl]-1H-pyrazol-1-yl}azetidin-3-yl)acetonitrile bis(trifluoroacetate) salt] | ≥ 7.00 | ≥ 6.00 | ≥ 7.00
Cc1nnc2ccc3c(cc(-c4nnco4)n3Cc3cc(Cl)cc(CN4CCC4)c3)n12 [Example 140, 6-[3-(Azetidin-1-ylmethyl)-5-chlorobenzyl]-1-methyl-7-(1,3,4-oxadiazol-2-yl)-6H-pyrrolo[2,3-e][1,2,4]triazolo[4,3-a]pyridine] |  | ≥ 6.00 | […]
Cc1nnc2ccc3c(cc(-c4ccn(C5CNC5)n4)n3Cc3cccc(Cl)c3)n12 [Example 156, 7-(1-azetidin-3-yl-1H-pyrazol-3-yl)-6-(3-chlorobenzyl)-1-methyl-6H-pyrrolo[2,3-e][1,2,4]triazolo[4,3-a]pyridine bis(trifluoroacetate) salt] | ≥ 7.00 | ≥ 6.00 | ≥ 7.00
CCN1CC(CC#N)(n2ccc(-c3cc4c(ccc5nnc(C)n54)n3Cc3ccccc3)n2)C1 [Example 110, {3-[3-(6-benzyl-1-methyl-6H-pyrrolo[2,3-e][1,2,4]triazolo[4,3-a]pyridin-7-yl)-1H-pyrazol-1-yl]-1-ethylazetidin-3-yl}acetonitrile] | ≥ 7.00 | ≥ 6.00 | 
Cc1cc2c(ccc3nnc(C)n32)n1[C@@H](C)c1ccccc1 (single isomer, unassigned) [Example 5, 1,7-dimethyl-6-(1-phenylethyl)-6H-pyrrolo[2,3-e][1,2,4]triazolo[4,3-a]pyridine] | 6.00 to 7.00 | 5.00 to 6.00 | ≥ 7.00
Cc1nnc2ccc3c(cc(-c4ccn(C5CN(S(C)(=O)=O)C5)n4)n3Cc3cccc(Cl)c3)n12 [Example 109, 6-(3-chlorobenzyl)-1-methyl-7-{1-[1-(methylsulfonyl)azetidin-3-yl]-1H-pyrazol-3-yl}-6H-pyrrolo[2,3-e][1,2,4]triazolo[4,3-a]pyridine] |  | ≥ 6.00 | ≥ 7.00
Cc1nnc2ccc3c(cc(-c4nnco4)n3Cc3cccc(Cl)c3)n12 [Example 141, 6-(3-Chlorobenzyl)-1-methyl-7-(1,3,4-oxadiazol-2-yl)-6H-pyrrolo[2,3-e][1,2,4]triazolo[4,3-a]pyridine trifluoroacetate salt] | ≥ 7.00 | ≥ 6.00 | ≥ 7.00
